US10172832B2, “Amide derivatives of N-urea substituted amino acids as formyl peptide receptor like-1 (FPRL-1) receptor modulators” (Allergan, Inc., priority 2011, dated 2019)

Biological target: T1, FPRL-1 (Homo sapiens, UniProt P25090)
T1 construct: expressed in transfected cells
T1 sequence (P25090 1-351): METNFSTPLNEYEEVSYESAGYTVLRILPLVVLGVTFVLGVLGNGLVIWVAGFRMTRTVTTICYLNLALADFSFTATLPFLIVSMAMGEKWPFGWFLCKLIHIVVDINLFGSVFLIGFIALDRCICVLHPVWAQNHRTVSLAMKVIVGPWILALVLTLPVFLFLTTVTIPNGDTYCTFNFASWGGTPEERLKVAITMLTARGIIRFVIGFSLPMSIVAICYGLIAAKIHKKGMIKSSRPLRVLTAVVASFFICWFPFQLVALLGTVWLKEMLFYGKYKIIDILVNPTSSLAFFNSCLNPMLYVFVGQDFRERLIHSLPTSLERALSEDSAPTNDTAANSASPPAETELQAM
Assay: compound-induced calcium activity on FLIPR Tetra in CHO-Gα16 cells stably expressing FPRL1
Assay type: cell-based
Conditions: for EC50: tested 0.61 to 10,000 nM, read-out: FPRL-1 Ga16-CHO EC50; for FPRL-1 Ga16-CHO (Rel. eff.): relative efficacy
Method in brief: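 CHO-Gα16 cells stably expressing FPRL1, plated at 18,000 cells/well the day before, were read for compound-induced calcium response on FLIPR Tetra.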

With `CC(C)C[C@H](NC(=O)Nc1ccc(Br)cc1)C(=O)NC(CO)CO` [Compound 48, (2S)-2-{[(4-bromophenyl)carbamoyl]amino}-N-[2-hydroxy-1-(hydroxymethyl)ethyl]-4-methylpentanamide] as the compound, how does the EC50 read?
Its EC50 is 7.4 nM.

For `CC(C)C[C@H](NC(=O)Nc1ccc(Br)cc1)C(=O)NCCO` [Compound 26, (2S)-2-{[(4-bromophenyl)carbamoyl]amino}-N-(2-hydroxyethyl)-4-methylpentanamide], which “FPRL-1 Ga16-CHO (Rel. eff.)” value is on record?
The value was “(0.92)”.

What about the EC50 of the same compound?
Its EC50 is 11 nM.

With `CCC[C@H](NC(=O)[C@H](CC(C)C)NC(=O)Nc1ccc(Br)cc1)C(=O)O` [Compound 51, (2S)-2-{[(2S)-2-{[(4-bromophenyl)carbamoyl]amino}-4-methylpentanoyl]amino}pentanoic acid] as the compound, how does the “FPRL-1 Ga16-CHO (Rel. eff.)” value read?
The value was “(0.89)”.

What about the EC50 of the same compound?
Its EC50 is 1 nM.

What does the source list for `NC(=O)CC(NC(=O)Nc1ccc(Br)cc1)C(=O)NCC(=O)O` (stereo not drawn) [[(4-amino-2-{[(4-bromophenyl)carbamoyl]amino}-4-oxobutanoyl)amino]acetic acid]?
FPRL-1 Ga16-CHO (Rel. eff.): (0.81); EC50: 2940 nM

How did the “FPRL-1 Ga16-CHO (Rel. eff.)” value turn out when `CC(C)C[C@H](NC(=O)Nc1ccc(Br)cc1F)C(=O)N[C@@H](C)C(=O)O` [Compound 39, (2S)-2-{[(2S)-2-{[(4-bromo-2-fluorophenyl)carbamoyl]amino}-4-methylpentanoyl]amino}propanoic acid] was run?
The value was “(0.95)”.

And the EC50?
The EC50 was 12 nM.

Which “FPRL-1 Ga16-CHO (Rel. eff.)” value does the source give for `CC(C)C[C@H](NC(=O)Nc1ccc(Br)cc1)C(=O)N[C@@H](C)C(=O)O` [Compound 43, (2S)-2-{[(2S)-2-{[(4-bromophenyl)carbamoyl]amino}-4-methylpentanoyl]amino}propanoic acid] here?
The value was “(1.05)”.

What about the EC50 of the same compound?
The EC50 was 11 nM.

For `CC(C)C[C@H](NC(=O)Nc1ccc(Br)cc1)C(=O)N[C@@H](C)C(N)=O` [Compound 45, (2S)-N-[(1S)-2-amino-1-methyl-2-oxoethyl]-2-{[(4-bromophenyl)carbamoyl]amino}-4-methylpentanamide], which “FPRL-1 Ga16-CHO (Rel. eff.)” value is on record?
Its value is “(0.96)”.

And the EC50?
Its EC50 is 24 nM.

`CCC[C@H](NC(=O)Nc1ccc(Br)cc1F)C(=O)NCC(C)=O` [(2S)-2-{[(4-bromo-2-fluorophenyl)carbamoyl]amino}-N-(2-oxopropyl)pentanamide] was tested. Which “FPRL-1 Ga16-CHO (Rel. eff.)” value did it give?
Its value is “(0.92)”.

What about the EC50 of the same compound?
The EC50 was 92 nM.

With `CC(C)C[C@H](NC(=O)Nc1ccc(C(F)(F)F)cc1)C(=O)NC(C)(C)C(=O)OC(C)(C)C` [Compound 79, tert-butyl 2-methyl-2-{[(2S)-4-methyl-2-({[4-(trifluoromethyl)phenyl]carbamoyl}amino)pentanoyl]amino}propanoate] as the compound, how does the “FPRL-1 Ga16-CHO (Rel. eff.)” value read?
Its value is “(1.07)”.

And the EC50?
The EC50 was 1020 nM.

What does the source list for `O=C(O)CNC(=O)[C@H](Cc1ccccc1)NC(=O)Nc1ccc(Br)cc1` [Compound 1, {[(2S)-2-{[(4-bromophenyl)carbamoyl]amino}-3-phenylpropanoyl]amino}acetic acid]?
FPRL-1 Ga16-CHO (Rel. eff.): (0.99); EC50: 7.7 nM

Which results are given for `CC[C@H](C)[C@H](NC(=O)Nc1ccc(Br)cc1)C(=O)NCCO` [Compound 14, (2S,3S)-2-{[(4-bromophenyl)carbamoyl]amino}-N-(2-hydroxyethyl)-3-methylpentanamide]?
FPRL-1 Ga16-CHO (Rel. eff.): (1.00); EC50: 24 nM

With `CC(C)C[C@H](NC(=O)Nc1ccc(Br)cc1)C(=O)N[C@H](C)CO` [Compound 48, (2S)-2-{[(4-bromophenyl)carbamoyl]amino}-N-[(1R)-2-hydroxy-1-methylethyl]-4-methylpentanamide] as the compound, how does the EC50 read?
The EC50 was 3 nM.

How did the “FPRL-1 Ga16-CHO (Rel. eff.)” value turn out when `CC[C@H](C)[C@H](NC(=O)Nc1ccc(Br)cc1F)C(=O)NCCO` [Compound 15, (2S,3S)-2-{[(4-bromo-2-fluorophenyl)carbamoyl]amino}-N-(2-hydroxyethyl)-3-methylpentanamide] was run?
The value was “(1.00)”.

And the EC50?
Its EC50 is 62 nM.

How did the “FPRL-1 Ga16-CHO (Rel. eff.)” value turn out when `CC(C)C[C@H](NC(=O)Nc1ccc(Br)cc1)C(=O)N[C@H](C(N)=O)C(C)C` [Compound 46] was run?
Its value is “(1.03)”.

And the EC50?
Its EC50 is 1.3 nM.

`CC(C)C[C@H](NC(=O)Nc1ccc(C(F)(F)F)cc1)C(=O)NCC(=O)O` [Compound 63, {[(2S)-4-methyl-2-({[4-(trifluoromethyl)phenyl]carbamoyl}amino)pentanoyl]amino}acetic acid] was tested. Which “FPRL-1 Ga16-CHO (Rel. eff.)” value did it give?
Its value is “(0.99)”.

And the EC50?
Its EC50 is 1.8 nM.

Which “FPRL-1 Ga16-CHO (Rel. eff.)” value does the source give for `CC(C)C[C@H](NC(=O)Nc1ccc(Br)cc1)C(=O)NCC(=O)OC(C)(C)C` [Compound 25, tert-butyl {[(2S)-2-{[(4-bromophenyl)carbamoyl]amino}-4-methylpentanoyl]amino}acetate] here?
Its value is “(0.85)”.

And the EC50?
The EC50 was 140 nM.

Which results are given for `CCC[C@H](NC(=O)Nc1ccc(Br)cc1)C(=O)NCC(C)=O` [(2S)-2-{[(4-bromophenyl)carbamoyl]amino}-N-(2-oxopropyl)pentanamide]?
FPRL-1 Ga16-CHO (Rel. eff.): (1.05); EC50: 35 nM

What does the source list for `CC(C)C[C@H](NC(=O)Nc1ccc(SC(F)(F)F)cc1)C(=O)NCC(=O)OC(C)(C)C` [Compound 71, tert-butyl ({(2S)-4-methyl-2-[({4-[(trifluoromethyl)sulfanyl]phenyl}carbamoyl)amino]pentanoyl}amino)acetate]?
FPRL-1 Ga16-CHO (Rel. eff.): (0.78); EC50: 3100 nM

How did the “FPRL-1 Ga16-CHO (Rel. eff.)” value turn out when `CC(=O)CNC(=O)[C@H](CC(C)C)NC(=O)Nc1ccc(Br)cc1F` [Compound 35, (2S)-2-{[(4-bromo-2-fluorophenyl)carbamoyl]amino}-4-methyl-N-(2-oxopropyl)pentanamide] was run?
Its value is “(0.99)”.

What about the EC50 of the same compound?
Its EC50 is 20 nM.
